Laboratory results from publication PMC6856131, “Pathways to defense metabolites and evading fruit bitterness in genus Solanum evolved through 2-oxoglutarate-dependent dioxygenases” (Nature Communications, 2019).

What was measured:
[1] = system: T1, ScGAME32-8380-1-2; experiment: hydroxylation assay, UPLC-qTOF-MS; format: biochemical, Solanum chacoense; conditions: alpha-ketoglutarate 10 mM, ascorbate 10 mM, FeSO4 500 uM, pH 7.5, 30 °C, 3 h; standard contains isomer impurities
T1 construct: pET28b, E. coli BL21 (DE3), Ni-NTA purified
T1 sequence (DOC6856131_7 entry or part of it): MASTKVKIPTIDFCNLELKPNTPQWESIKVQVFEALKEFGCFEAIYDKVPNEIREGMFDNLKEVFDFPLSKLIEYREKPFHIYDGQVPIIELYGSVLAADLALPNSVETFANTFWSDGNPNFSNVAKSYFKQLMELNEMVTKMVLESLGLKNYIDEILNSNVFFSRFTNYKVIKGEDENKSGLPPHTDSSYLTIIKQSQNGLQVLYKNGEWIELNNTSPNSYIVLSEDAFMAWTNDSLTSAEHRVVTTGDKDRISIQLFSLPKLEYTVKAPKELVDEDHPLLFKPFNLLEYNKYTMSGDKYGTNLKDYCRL

[2] = system: T2, ScGAME32-8380-1-1; experiment: hydroxylation assay, UPLC-qTOF-MS; format: biochemical, Solanum chacoense; conditions: alpha-ketoglutarate 10 mM, ascorbate 10 mM, FeSO4 500 uM, pH 7.5, 30 °C, 3 h; standard contains isomer impurities
T2 construct: pET28b, E. coli BL21 (DE3), Ni-NTA purified
T2 sequence (DOC6856131_6 entry or part of it): as the sequence (DOC6856131_7 entry or part of it) above, with L288M, N292L, Y301S counted along it

[3] = biological target: T3, GAME31 (tomato) (Solanum lycopersicum, UniProt A0A6F8PJG0); format: biochemical; conditions: alpha-ketoglutarate 10 mM, ascorbate 10 mM, FeSO4 500 uM, pH 7.5, 30 °C, 3 h
T3 construct: gene 23DOX
T3 sequence (A0A6F8PJG0 entry or part of it): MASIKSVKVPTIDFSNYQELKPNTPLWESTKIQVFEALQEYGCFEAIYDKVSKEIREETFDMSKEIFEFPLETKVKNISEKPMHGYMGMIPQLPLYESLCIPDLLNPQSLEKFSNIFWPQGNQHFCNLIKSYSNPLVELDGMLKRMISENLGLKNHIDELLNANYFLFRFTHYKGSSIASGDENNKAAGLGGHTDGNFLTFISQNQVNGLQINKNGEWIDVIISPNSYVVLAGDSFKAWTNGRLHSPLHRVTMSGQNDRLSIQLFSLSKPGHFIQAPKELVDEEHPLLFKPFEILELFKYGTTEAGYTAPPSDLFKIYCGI

SMILES: C[C@H]1CC[C@@H]2[C@@H](C)[C@H]3[C@H](C[C@H]4[C@@H]5CC=C6C[C@@H](O[C@@H]7O[C@H](CO)[C@@H](O[C@@H]8O[C@@H](C)[C@H](O)[C@@H](O)[C@H]8O)[C@H](O)[C@H]7O[C@@H]7O[C@@H](C)[C@H](O)[C@@H](O)[C@H]7O)CC[C@]6(C)[C@H]5CC[C@]34C)N2C1 [α-chaconine]
- hydroxylation assay, UPLC-qTOF-MS [1]: Incubation of ScGAME32-8380-1-1 or ScGAME32-8380-1-2 with α-chaconine and α-solanine resulted in the formation
- hydroxylation assay, UPLC-qTOF-MS [2]: Incubation of ScGAME32-8380-1-1 or ScGAME32-8380-1-2 with α-chaconine and α-solanine resulted in the formation

SMILES: C[C@@H]1CC[C@@]2(NC1)O[C@H]1C[C@H]3[C@@H]4CC=C5C[C@@H](O[C@@H]6O[C@H](CO)[C@@H](O[C@@H]7O[C@@H](C)[C@H](O)[C@@H](O)[C@H]7O)[C@H](O)[C@H]6O[C@@H]6O[C@@H](C)[C@H](O)[C@@H](O)[C@H]6O)CC[C@]5(C)[C@H]4CC[C@]3(C)[C@H]1[C@@H]2C [α-solamargine]
- hydroxylation assay, UPLC-qTOF-MS [3]: hydroxy-solasodine, and hydroxy-solamargine from dehydrotomatine, solasodine, and α-solamargine, respectively
